Measured values published in PubChem BioAssay AID624092 (The Scripps Research Institute Molecular Screening Center, 2012).
Active and inactive are the calls of the source.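 Rule for the calls: active = compounds blocking the TEM-1 enzyme with a half-maximal inhibitory concentration of 10 micromolar or lower; inactive = the rest.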

Target: Beta-lactamase TEM (Escherichia coli) (UniProt P62593)
Assay: TEM-1 beta-lactamase inhibitor potency, late-stage follow-up, selectivity assay, biochemical, absorbance, probe candidates and analogs (AID 624092)
Settings: purified TEM-1, nitrocefin hydrolysis, epi-absorbance

Sequence of Beta-lactamase TEM (Escherichia coli) (P62593 whole entry, looked up): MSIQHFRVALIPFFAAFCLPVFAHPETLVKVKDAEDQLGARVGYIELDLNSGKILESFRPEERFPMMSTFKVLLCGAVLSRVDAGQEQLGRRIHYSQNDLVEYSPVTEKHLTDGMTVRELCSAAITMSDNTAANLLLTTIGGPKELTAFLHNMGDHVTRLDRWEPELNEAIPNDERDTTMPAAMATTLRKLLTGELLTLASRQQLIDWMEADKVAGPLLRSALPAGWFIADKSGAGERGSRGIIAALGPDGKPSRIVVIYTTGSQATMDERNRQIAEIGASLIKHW

| Compound | IC50 |
| --- | --- |
| CN1CCN(NC(=O)CN2C(=O)/C(=C/c3c(Cl)cccc3Cl)SC2=S)CC1 | > 60 µM (inactive) |
| CN1CCN(NC(=O)CN2C(=O)/C(=C/c3c(Cl)ccc(Cl)c3Cl)SC2=S)CC1 | > 60 µM (inactive) |
